Positions of bridges follow the written chain, without caps; N, C: chain ends. Chains are numbered I, II in the order given. No end group written: not given here.
Tests used:
[1] = system: fibronectin expression, rheumatoid synovial fibroblasts; experiment: Inhibition of fibronectin expression by synovial fibroblasts; type: cell-based, human; settings: 100 ng/ml; TGF-β-treated fibroblasts
From the text: The method for detecting and measuring collagen formation in the presence of relaxin described in Unemori and Amento, 1990, J. Biol. Chem. 265:10681-685 has been modified as follows to determine the ability of RLF, in vitro, to modulate the expression of fibronectin.
Materials And Methods. Specifically, using the method described in section 6.7.1., the fibronectin band was identified by size (220 kDa), bacterial collagenase-resistance, and positive staining using commercially available polyclonal anti-fibronectin antibody (Promega). The fibronectin band was scanned densitometrically to estimate levels of expression.

[2] = target: T1, uterine relaxin receptor (Mus musculus, UniProt Q6R6I7); experiment: Relaxin-binding assay, mouse uterus crude membranes, porcine relaxin tracer
T1 construct: brain, and uterus (of estrogen primed mice); from tissue; host or cells: uterus of estrogen-primed mice, crude membranes
T1 sequence (Q6R6I7 1-758): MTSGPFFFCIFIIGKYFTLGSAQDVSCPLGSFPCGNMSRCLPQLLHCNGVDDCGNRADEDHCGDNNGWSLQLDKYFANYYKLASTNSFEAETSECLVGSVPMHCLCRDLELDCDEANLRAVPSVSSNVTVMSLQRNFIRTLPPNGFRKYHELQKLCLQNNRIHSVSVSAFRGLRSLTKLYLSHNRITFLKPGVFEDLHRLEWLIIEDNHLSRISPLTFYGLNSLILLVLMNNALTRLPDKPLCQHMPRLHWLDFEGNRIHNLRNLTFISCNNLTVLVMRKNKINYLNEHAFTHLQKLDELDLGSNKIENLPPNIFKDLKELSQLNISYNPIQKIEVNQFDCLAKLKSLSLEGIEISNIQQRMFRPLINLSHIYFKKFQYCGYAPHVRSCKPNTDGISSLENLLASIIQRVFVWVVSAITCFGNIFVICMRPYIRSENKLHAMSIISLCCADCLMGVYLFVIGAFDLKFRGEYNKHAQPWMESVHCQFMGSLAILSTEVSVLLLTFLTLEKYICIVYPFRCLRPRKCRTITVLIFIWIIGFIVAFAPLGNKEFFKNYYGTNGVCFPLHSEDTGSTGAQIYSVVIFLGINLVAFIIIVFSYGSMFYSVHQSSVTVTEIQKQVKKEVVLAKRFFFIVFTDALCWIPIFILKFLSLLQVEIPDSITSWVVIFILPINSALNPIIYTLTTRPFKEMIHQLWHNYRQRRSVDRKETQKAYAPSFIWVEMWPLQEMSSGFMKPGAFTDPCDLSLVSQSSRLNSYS
Experimental: Relaxin-binding assays were performed as described in Yang, et al., 1992, Endocrinology 130:179-185 and Büllesbach, et al., 1994, Endocrine. 2:1115-1120, using crude membrane preparations of mouse tissue. Mouse brains of 2 mice were collected into 15 ml of chilled buffer (25 mM HEPES, 0.14 M NaCl, 5.7 mM KCI, 0.2 mM phenylmethylsulfonyl-fluoride, and 80 mg/ml soybean trypsin inhibitor, pH 7.5) supplemented with sucrose (0.25 M, final concentration). The tissue was homogenized on ice for 10 s with a Polytron homogenizer (Brinlmann, Westbury, N.Y.) at setting 5. The homogenate was centrifuged at 700 rpm for 10 min at 4° C. and the supernatants were recentrifuged at 10,000×g for 1 h. The pellet was resuspended in 15 ml of ice cold binding buffer, 25 mM HEPES, 0.14 M NaCl, 5.7 mM KCI, 0.2 mM phenylmethylsulfonylfluoride, and 80 mg/ml soybean trypsin inhibitor, pH 7.5, supplemented with 1% bovine serum albumin, and centrifuged for 1 h at 10,000×g. […] The supernatant was discarded, the tip of the vial cut and counted in a γ-counter. Nonspecific binding was determined in the presence of 2 μl/ml of unlabeled competitor (0.33 μM). […]
Tissue specificity was determined using crude membrane preparations of leg muscles, kidneys, liver. brain, and uterus (of estrogen primed mice). […] Binding was based on protein concentration determined by Lowry.

[3] = target: T2, insulin receptor (Homo sapiens, UniProt P06213); experiment: Insulin-receptor binding assay on crude membrane preparations of term placenta; settings: term placenta crude membranes; 125I-iodo-TyrA14 porcine insulin tracer
T2 construct: crude membrane preparations of term placenta; from tissue; host or cells: term placenta, crude membranes
Experimental: Insulin-receptor binding assays were performed on crude membrane preparations of term placenta, as described in Hock and Hollenberg, 1980, J. Biol. Chem. 255:10731-10736, using ^125I-iodo-Tyr^A14 porcine insulin as tracer according to the method of Linde, et al., 1986, J. Chromatogr. 369:327-339.
The assays were performed in HMS-buffer (25 mM HEPES, 104 mM NaCl, 5 mM MgCl2, 0.2% bovine serum albumin; pH 7.4) in a total volume of 100 μl. Labeled insulin (50,000 cpm/assay, 150 pM) and variable amounts of insulin were incubated with crude membranes for 1 h at room temperature. Thereafter 1 ml of buffer was added, the membranes collected by centrifugation in a microcentrifuge at 14,000 rpm for 5 min, the supernatant discarded, and the tip of the Eppendorf vial cut off and counted in a γ-counter (Minigamma, LKB, Sweden). To determine nonspecific binding unlabeled insulin was used at a concentration of 2 μl/ml (0.33 μM) and nonspecific binding was usually below 10% of the total binding.

[4] = system: mouse brain relaxin receptor; experiment: Relaxin-binding assay, mouse brain crude membranes, porcine relaxin tracer
Experimental: Relaxin-binding assays were performed as described in Yang, et al., 1992, Endocrinology 130:179-185 and Büllesbach, et al., 1994, Endocrine. 2:1115-1120, using crude membrane preparations of mouse tissue. Mouse brains of 2 mice were collected into 15 ml of chilled buffer (25 mM HEPES, 0.14 M NaCl, 5.7 mM KCI, 0.2 mM phenylmethylsulfonyl-fluoride, and 80 mg/ml soybean trypsin inhibitor, pH 7.5) supplemented with sucrose (0.25 M, final concentration). The tissue was homogenized on ice for 10 s with a Polytron homogenizer (Brinlmann, Westbury, N.Y.) at setting 5. The homogenate was centrifuged at 700 rpm for 10 min at 4° C. and the supernatants were recentrifuged at 10,000×g for 1 h. The pellet was resuspended in 15 ml of ice cold binding buffer, 25 mM HEPES, 0.14 M NaCl, 5.7 mM KCI, 0.2 mM phenylmethylsulfonylfluoride, and 80 mg/ml soybean trypsin inhibitor, pH 7.5, supplemented with 1% bovine serum albumin, and centrifuged for 1 h at 10,000×g. The crude membrane preparation was suspended in 1 ml of binding buffer and 40 μl was used per assay. The assay was performed using 40 μl of tracer (about 100,000 cpm of porcine relaxin tracer=150 pM) and 20 μl of relaxin at various concentrations. The assay was incubated for 1 h at room temperature, and the suspension diluted with 1 ml of wash buffer (25 mM HEPES, 0.14 M NaCl, 5.7 mM KCI, 1% bovine serum albumin, 0.01% NaN3) and centrifuged in Eppendorf centrifuge at 14,000 rpm for 10 min. The supernatant was discarded, the tip of the vial cut and counted in a γ-counter. Nonspecific binding was determined in the presence of 2 μl/ml of unlabeled competitor (0.33 μM). In a typical experiment the specific binding was between 25% and 40% of the total binding.

[5] = system: procollagenase expression, rheumatoid synovial fibroblasts (Strain No. RSF112); experiment: Stimulation of procollagenase expression by synovial fibroblasts (gelatin zymography); type: cell-based, human
From the text: A method for detecting and measuring procollagenase formation is described in Unemori, et al., 1991, J. Biol. Chem. 266:23477-482. Such method was modified to measure the expression of procollagenase in the presence of RLF as follows: Materials And Methods. Rheumatoid synovial fibroblasts (Strain No. […] Conditioned media were collected and an aliquot analyzed by gelatin zymography. Procollagenase was identified as a […] doublet at 52/57 kDa. The intensity of the doublet (i.e., the amount of procollagenase expressed, was quantified by scanning densitometry.

- recognition by the uterine relaxin receptor [2]: barely recognizes
- 50% Binding ([2]; tracer pRLX): 10000 ng
- crossreactivity with the brain relaxin receptor ([4]; mouse brain): moderate crossreactivity
- excess that displaces 50% of the relaxin tracer ([4]; mouse brain relaxin receptor preparation): hundred-fold
- 50% Binding ([4]; mouse brain, tracer pRLX): 200 ng
- stimulation of procollagenase expression ([5]; 1 ng/ml): 0 fold
- stimulation of procollagenase expression ([5]; 10 ng/ml): 2.0 fold
- stimulation of procollagenase expression ([5]; 100 ng/ml): 4.2 fold
Substance: RLF: synthesized human relaxin-like factor, two-chain peptide (A and B chain, SEQ ID NOS:3 and 4), three disulfide links (alpha AAATNPARYCCLSGCTQQDLLTLCPY; beta PTPEMREKLCGHHFVRALVRVCGGPRWSTEA; disulfide I:11-II:10; also: two further disulfide bonds, places not given here)
- decrease of TGF-β-stimulated fibronectin expression [1]: 17%
- binding to the insulin receptor [3]: does not bind with any significant degree

Reference: patent US6949506B2, “Relaxin-like factor and methods and uses thereof” (BAS Medical, Inc., priority 1995, dated 2005)
